We go through 1 compound from patent US7608620B2, “LPAAT-β inhibitors and uses thereof” (Cell Therapeutics, Inc., priority 2000, dated 2009).

Bounds are passed on as bounds.

A short description of data set [1]: Tolerability in nude and immunocompetent mice. The class given is in vivo. The source says:
In summary, endogenous LPAAT-β expression is detected at high levels by both in situ hybridization and immunohistochemistry in particular tumor tissues and often in surrounding stroma and is associated with tumor progression. LPAAT-β overexpression appears to contribute reversibly to transformation and tumorigenesis of immortalized rodent cells and may also contribute to increased transformation of weakly tumorigenic human cell lines. Compounds selected from screening of LPAAT-β inhibitors from different structural families can inhibit proliferation of numerous tumor cell lines in vitro. […] This compound can inhibit the growth of numerous tumor models in mice and may be a tumor-static compound.

In data set [2] the test system is Lewis Lung tumor cells. As to the kind of experiment: Growth of Lewis Lung tumor cells in syngeneic mice. The class given is in vivo. The note with it: FIG. 6D.
For data set [3], the system named is human breast tumor MCF-7 cells. As to the kind of experiment: Proliferation of MCF-7 cells by CyQUANT analysis. The format is cell-based. Conditions: FIG. 5E. As for the experimental part: To determine whether administration of LPAAT-β inhibitor would have any effect on cell proliferation in tissue culture, proliferation of human breast tumor MCF-7 cells in microplates were measured by CyQUANT analysis using a green-fluorescent nucleic acid stain optimized to produce a linear detection range from 50 to 50,000 cells in 200 μl volume (Molecular Probes, Eugene, Oreg.) in the presence of various concentrations of a LPAAT-β inhibitor.

Data set [4] deals with human DU145 prostate tumor cells. As to the kind of experiment: Human DU145 prostate tumor xenograft in nude mice. The class given is in vivo. The note with it: xenograft study, FIG. 6E.
In data set [5] the target is T1, LPAAT-α (Homo sapiens, UniProt Q99943).
T1 sequence (Q99943 27-283): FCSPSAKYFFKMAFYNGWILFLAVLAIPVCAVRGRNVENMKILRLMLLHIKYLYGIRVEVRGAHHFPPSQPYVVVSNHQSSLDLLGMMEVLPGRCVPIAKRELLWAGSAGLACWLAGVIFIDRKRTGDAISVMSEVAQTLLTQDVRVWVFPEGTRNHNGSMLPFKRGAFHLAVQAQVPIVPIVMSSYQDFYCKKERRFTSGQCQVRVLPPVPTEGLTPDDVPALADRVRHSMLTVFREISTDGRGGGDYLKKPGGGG
As to the kind of experiment: Secondary assay, effect on LPAAT-α activity. The class given is biochemical. Conditions: FIG. 9.

In data set [6] the test system is B16 melanoma cells. As to the kind of experiment: Growth of B16 melanoma cells in syngeneic mice. The format is in vivo. The note with it: FIG. 6C.
For data set [7], the system named is NIH/3T3 cells overexpressing the oncogene Ki-ras. As to the kind of experiment: Tumor growth of NIH/3T3 cells overexpressing Ki-ras injected subcutaneously into nude mice. The class given is in vivo. The note with it: 10 mg/Kg to 100 mg/Kg intra-peritoneally on day 1, 2, 3 and 4; tumors measured on day 8; FIG. 6B. Here is the method: To determine whether administration of LPAAT-β inhibitor would have any effect on tumor growth in mice, 5×10^5 NIH/3T3 cells overexpressing the oncogene Ki-ras were injected subcutaneously into nude mice. An LPAAT-β inhibitor 6-chloro-N,N′-diphenyl-[1,3,5]triazine-2,4-diamine, at concentrations that range from 10 mg/Kg to 100 mg/Kg of mouse body weight was injected intra-peritoneally on day 1, 2, 3 and 4 after injection of tumor cells. The size of tumors was then measured on day 8.

The target in data set [8] is T2, LPAAT-β (Homo sapiens, UniProt O15120).
T2 construct: the full-length human LPAAT-β cDNA was amplified by PCR; made in house; host or cells: Sf9 insect cells (baculovirus, pFastBac HTc); membrane fraction
T2 sequence (O15120 24-278): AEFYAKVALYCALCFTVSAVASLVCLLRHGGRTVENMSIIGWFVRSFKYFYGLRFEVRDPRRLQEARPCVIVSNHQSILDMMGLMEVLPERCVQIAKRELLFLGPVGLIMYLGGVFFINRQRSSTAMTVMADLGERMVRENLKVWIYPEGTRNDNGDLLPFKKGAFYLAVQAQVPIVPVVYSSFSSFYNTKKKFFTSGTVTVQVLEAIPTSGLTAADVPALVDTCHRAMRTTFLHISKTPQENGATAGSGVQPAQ
As to the kind of experiment: Secondary assay of LPAAT-β activity (radiometric/TLC). The format is biochemical. The note with it: FIG. 9. Here is the method:
The radiometric assay was carried out in Sf9 cell membrane overexpressing LPAAT-β resuspended in HEPES-saline buffer, pH 7.5, 1 mg/ml BSA, 1 mM EDTA and 200 μM [^14C]18:1-CoA and 200 μM sn-1-18:1 lysoPA. The samples were incubated 7 min at 37° C. extracted into organic solvent (CHCl3/CH3OH/HCl at 33/66/1), before loading onto TLC plates. A more detailed protocol for the radiometric assay is described below:
Specifically, this LPAAT assay is a modification of the acyltransferase assay published previously (Hollenback and Glomset, Biochemistry 37: 363-376 (1999)).
1. The basic assay, in a total vol of 50 μl, employs a solution of substrates and the protein sample. Total assay volume, as well as the volume of each solution, can be changed to fit an experiment. In addition, other compounds, ex inhibitors and activators, can be included in the assay as well.
2. […]
7. […] To be able to convert pixel volume (determined by the Storm phosphor imager, see step 8b) into cpm, cpm standard curve must be generated on the plate. ^14C-labeled oleate dilutions in chloroform are made for this purpose. Four stocks (50 cpm/μl to 800 cpm/μl) are made and 2 μl of a different concentration are spotted in each corner of the plate (where previously there was no radioactivity). • d. […]
The PA and lysoPA bands are easily detected in this system because of the carrier added in step 5. […]
8. Quantitating activity: • a. […]

On to `Clc1nc(Nc2ccccc2)nc(Nc2ccccc2)n1` [6-chloro-N,N′-diphenyl-[1,3,5]triazine-2,4-diamine], for which the gross pathology entry in data set [1] (at least 100 mg/kg/day for 4-5 days) is recorded as “no discernable gross pathology”. The tolerated dose entry in data set [1] (nude and immunocompetent mice, mouse, in vivo) is “at least 100 mg/kg/day”. Also, in data set [2], the “growth of Lewis Lung tumor cells” value is listed as “decrease the growth”. Moreover, in data set [3], the “concentration effective in blocking the proliferation of MCF-7 cells” value is more than 20 µM. In addition, in data set [4], the “growth of human DU145 prostate tumor cells” value was “decrease the growth”. Besides, the “effect on LPAAT-α activity” value in data set [5] is “minimal effect”. Further, the “growth of B16 melanoma cells” value in data set [6] is given as “decrease the growth”. Further, the “volume of the tumors in mice” value in data set [7] is recorded as “decreased as the concentration of the LPAAT-β inhibitor increases”. Also, in data set [8], the “inhibition of LPAAT-β activity” value is “concentration-dependent inhibition”.
